Where two headings read alike, the source gives them in different places.
What was measured:
mice = test: Acute toxicity, LD50 after i.p. administration; format: in vivo
Description: (§1) The toxicity of the 3-azidomethyl-2,9-dioxatricyclo[4,3,1,0^3,7 ] decanes of the formula (I) is extremely low. The LD50 in mice is in the range of between about 500 and about 700 mg/kg, when determined after i.p. administration of the compounds.

rat's paw = test: Randall-Selitto-Test, pressure pain threshold in the rat's paw (antiphlogistic/analgesic); format: in vivo; conditions: for ED50: Rattus norvegicus, sc
[1] = test system: phenyl benzoquinone syndrome in mice; test: Phenyl benzoquinone syndrome (writhing test), analgesic activity; format: in vivo, mouse; conditions: for ED50: Mus musculus, po, read-out: Analgesic activity, inhibition of PBC-syndrome, ED50
[2] = Acute toxicity, LD50 after i.p. administration; format: in vivo; conditions: mouse, in vivo, ip, mice
Description: as §1

[3] = normal paw, read-out: Randall Selitto-test ED50, normal paw
[4] = oedema bearing paw, read-out: Randall Selitto-test ED50, oedema bearing paw

| SMILES | LD50 (mice) | Randall Selitto-test ED50, normal paw (rat's paw; s.c., normal paw) | Randall Selitto-test ED50, oedema bearing paw (rat's paw; s.c., oedema bearing paw) | Analgesic activity, inhibition of PBC-syndrome, ED50 ([1]; mouse, p.o.) | LD50 [2] | ED50 (rat's paw; [3]) | ED50 (rat's paw; [4]) | ED50 ([1]; mouse, p.o.) | ED50 [1] |
| --- | --- | --- | --- | --- | --- | --- | --- | --- | --- |
| COC1OC2OC3(CN=[N+]=[N-])C(OC(C)=O)CC(C2C)C13 (stereo not drawn) [XXVI, 3-azidomethyl-4α-acetoxy-8-methoxy-10β-methyl-2,9-DTD] | 574 mg/kg | ~ 32 mg/kg | 15 mg/kg | < 3.2 mg/kg |  |  |  |  |  |
| COC1OC2OC3(CN=[N+]=[N-])C(O)CC(C2C)C13 (stereo not drawn) [XXII, 3-azidomethyl-4α-hydroxy-8-methoxy-10β-methyl-2,9-DTD] |  |  |  |  | 571 mg/kg | > 32 mg/kg | > 32 mg/kg | 18.5 mg/kg |  |
| CC(=O)Oc1ccccc1C(=O)O [Apsirin, reference compound] |  |  |  |  |  | > 700 mg/kg | 440 mg/kg |  | 240 mg/kg |
| COC1OC2OC3(CN=[N+]=[N-])C(=O)CC(C2C)C13 (stereo not drawn) [XVIII, 3-azidomethyl-8-methoxy-10β-methyl-2,9-DTD-4-one] |  |  |  |  | 632 mg/kg | > 100 mg/kg | > 100 mg/kg | < 56 mg/kg |  |
| COC1OC2OC3(CN=[N+]=[N-])C(OC(C)=O)CC(C2C)C13 (stereo not drawn) [X, 3-azidomethyl-4β-acetoxy-8-methoxy-10β-methyl-2,9-DTD] |  |  | > 32 mg/kg | ~ 10 mg/kg | 739 mg/kg | > 32 mg/kg |  |  |  |
| CCCCC1C(=O)N(c2ccccc2)N(c2ccccc2)C1=O [Phenylbutazone, reference compound] |  |  |  |  |  | > 100 mg/kg | 58 mg/kg | > 30 mg/kg |  |
| C=C1C2OC(OC)C3C1CC(OC(C)=O)C3(CN=[N+]=[N-])O2 (stereo not drawn) [XXV, 3-azidomethyl-4α-acetoxy-8-methoxy-10-methylene-2,9-DTD] |  |  |  |  |  | 100 mg/kg | 100 mg/kg | ~56 mg/kg |  |
| COc1ccc2c(c1)c(CC(=O)O)c(C)n2C(=O)c1ccc(Cl)cc1 [Indomethazine, reference compound] |  |  |  |  |  | 250 mg/kg | 64 mg/kg |  |  |
| COc1ccc2cc([C@H](C)C(=O)O)ccc2c1 [Naproxene, reference compound] |  |  |  |  |  | 250 mg/kg | 147 mg/kg | 30 mg/kg |  |

Reference: patent publication US4117148A, “2,9-Dioxatricyclo [4,3,1,0,3,7] decane derivatives, processes for their preparation and pharmaceutical compositions thereof” (Kali-Chemie Pharma GmbH., priority 1977, dated 1978)
